The subject of one assay is Ramos. Description: Cytotoxicity against human Ramos cells assessed as reduction in cell viability after 72 hrs by MTS assay. It is filed as functional, cell-based. (In general: Tetrazolium dyes change colour on reduction, which living cells bring about.)
Assay [1] in a line: Cytotoxicity against human PC3 cells assessed as reduction in cell viability after 72 hrs by MTS assay. It counts as functional, cell-based. As to conditions: PC-3, 72 h.
The nature of assay [2]: Cytotoxicity against human U87 cells assessed as reduction in cell viability after 72 hrs by MTS assay. It counts as functional, cell-based, U-87MG ATCC. As to conditions: U-87 MG.
A further assay concerns Jurkat. The assay can be described thus: Cytotoxicity against human Jurkat cells assessed as reduction in cell viability after 72 hrs by MTS assay. It is filed as functional, cell-based.
A further assay deals with A549. The assay can be described thus: Cytotoxicity against human A549 cells assessed as reduction in cell viability after 72 hrs by MTS assay. It is filed as functional, cell-based. As to conditions: A549, 72 h.

For `CCOC(=O)CC[C@H](NP(=O)(OC[C@H]1O[C@@H](n2ccc(N)nc2=O)C(F)(F)[C@@H]1O)Oc1ccccc1)C(=O)OCC` (stereo not given in full), the EC50 with Ramos was 365 nM; in assay [1] it was 2.3 µM; in assay [2] it was more than 100 µM; in the assay with Jurkat, 0.129 µM; with A549, more than 100 µM.
Regarding `CC(C)CCOC(=O)CC[C@H](NP(=O)(OC[C@H]1O[C@@H](n2ccc(N)nc2=O)C(F)(F)[C@@H]1O)Oc1ccccc1)C(=O)OCCC(C)C` (stereo not given in full), the half-maximal effective concentration (EC50) with Ramos was 1200 nM; in assay [1], 10.9 µM; in assay [2] it was more than 100 µM; in the assay on Jurkat, 1.2 µM; in the assay on A549, more than 100 µM.
`CC(C)CCOC(=O)C[C@H](NP(=O)(OC[C@H]1O[C@@H](n2cc(F)c(=O)[nH]c2=O)C[C@@H]1O)Oc1ccccc1)C(=O)OCCC(C)C` (stereo not given in full): the EC50 with Ramos amounted to 724 nM; in assay [1], 22.7 µM; in assay [2], 10.1 µM; with Jurkat, 1.1 µM; in the assay on A549, 43.4 µM.
Regarding `CC(C)CCOC(=O)[C@H](CC(=O)OCc1ccccc1)NP(=O)(OC[C@H]1O[C@@H](n2ccc(N)nc2=O)C(F)(F)[C@@H]1O)Oc1ccccc1` (stereo not given in full), the 50% effective concentration (EC50) was 700 nM with Ramos; 3.8 µM in assay [1]; 43.7 µM in assay [2]; 0.209 µM in the assay with Jurkat; more than 100 µM in the assay on A549.
The corresponding values for `CC(C)CCOC(=O)C[C@H](NP(=O)(OC[C@H]1O[C@@H](n2ccc(N)nc2=O)C(F)(F)[C@@H]1O)Oc1ccccc1)C(=O)OCc1ccccc1` (stereo not given in full) are 813 nM, 3.6 µM, more than 100 µM, 0.21 µM and more than 100 µM.
The corresponding values for `CC(C)CCOC(=O)C[C@H](NP(=O)(OC[C@H]1O[C@@H](n2cc(I)c(=O)[nH]c2=O)C[C@@H]1O)Oc1ccccc1)C(=O)OCCC(C)C` (stereo not given in full) are 13600 nM, 33.3 µM, 38 µM, 14.7 µM and 27 µM.
The corresponding values for `CC(C)CCOC(=O)C[C@H](NP(=O)(OC[C@H]1O[C@@H](n2cc(/C=C/Br)c(=O)[nH]c2=O)C[C@@H]1O)Oc1ccccc1)C(=O)OCCC(C)C` (stereo not given in full) are 6300 nM, 12.5 µM, 12.8 µM, 5.2 µM and 9.9 µM.
Regarding `CC(C)CCOC(=O)C[C@H](NP(=O)(OC[C@H]1O[C@@H](n2ccc(N)nc2=O)C(F)(F)[C@@H]1O)Oc1ccccc1)C(=O)OCCC(C)C` (stereo not given in full), the EC50 in the assay on Ramos is 294 nM; in assay [1], 3.5 µM; in assay [2], 43.3 µM; with Jurkat it was 0.294 µM; with A549, more than 100 µM.
Taken in the same sequence, the figures for `O=c1[nH]c(=O)n([C@H]2C[C@H](O)[C@@H](CO)O2)cc1/C=C/Br` [BRIVUDINE] were more than 100000 nM, more than 100 µM, more than 100 µM, more than 100 µM and more than 100 µM.
The corresponding values for `O=c1[nH]c(=O)n([C@H]2C[C@H](O)[C@@H](CO)O2)cc1F` [FLOXURIDINE] are 7.51 nM, 86.9 µM, 18.2 µM, 0.00333 µM and 60.8 µM.
In the case of `Nc1ccn([C@@H]2O[C@H](CO)[C@@H](O)C2(F)F)c(=O)n1` [GEMCITABINE], the EC50 with Ramos was 0.03 nM; in assay [1], 0.065 µM; in assay [2] it was more than 100 µM; in the assay on Jurkat, 0.023 µM; with A549 it was more than 100 µM.
`O=c1[nH]c(=O)n([C@H]2C[C@H](O)[C@@H](CO)O2)cc1I` [IDOXURIDINE]: the EC50 with Ramos is 47900 nM; in assay [1], more than 100 µM; in assay [2], more than 100 µM; with Jurkat, 79.7 µM; in the assay on A549, more than 100 µM.

By EC50 is commonly meant the concentration needed to bring the measured effect to its halfway point.

The values are drawn from ChEMBL document CHEMBL3792335, “L-Aspartic and l-glutamic acid ester-based ProTides of anticancer nucleosides: Synthesis and antitumoral evaluation” (Bioorg Med Chem Lett, 2016).
